Laboratory results taken from patent publication US9327009B2, “Peptide inhibitors as novel anti-HIV therapeutics” (Council of Scientific & Industrial Research, priority 2012, dated 2016).

Molecular target: Nef-ASK1 interaction (UniProt P03404+Q99683)
Conditions: ATCC CRL-1573 cells co-transfected with Nef-ASK1g, 48 hours; ASK-1 alone 43.15, ASK-1 + Nef (background) 22.15, control 11.0
Description: HEK 293 cells were grown in Minimal Essential medium (low glucose, Sigma) supplemented with 10% fetal bovine serum, penicillin (100 units/ml), streptomycin (100 μg/ml) and Gentamycin (50 μg/ml) at 37° C. with 5% CO2. 1×10^5 cells were seeded per well in twenty four well plates, one day before transfection. Using commercially available ExGen 500 (fermentas) transfection reagent, all the required endotoxin free plasmid constructs were co-transfected into HEK 293 cells. 0.75 microgram of each plasmid and 5.0 micro liters per well ExGen 500 reagent were used. 48 h post transfection the cells were harvested and Luciferase activity was monitored using the Dual-Luciferase® Reporter assay kit (Promega). The data for basal control were used for the conversion of Luciferase activity to fold activation. As a positive control, the protein-protein interaction vectors pACTMyoD and pBIND-ID encoding the MyoD and ID control proteins, provided with the kit were used.
The ASK1g, h, i,j fragments alone and with Nef were transfected in ATCC CRL-1573™ cells. The transfected cells were cultured for 48 hours and were labeled with AnnexinV and PI staining for analyzing aspoptosis.
Inhibitors were designed from the crystal structure of Nef solved in our laboratory (Pankaj et al., 2011) The inhibitors were cultured with cells transfected will Nef, ASK1g and co-transfected with Nef-ASK1g. The cells after 48 hours were analysed for apoptosis using annexin V and PI staining.

Sequence | % of Annexin V cells means apoptotic cells
DEVGEANN [Peptide-3] | 40.37%
GENNCLLH [Peptide-2] | 24.96%
LHGMEDPE [Peptide-4] | 23.0%
PVRPQVPLRP [Peptide-5] | 22.45%
TPGPGVRYP [Peptide-1] | 22.45%
